Values of other authors in PMC4585333, “Novel Regulator of Acylated Ghrelin, CF801, Reduces Weight Gain, Rebound Feeding after a Fast, and Adiposity in Mice” (Frontiers in Endocrinology, 2015).

Key:
[1] = cited from earlier work
Description: One potential target for the control of body weight and appetite is the gut–brain peptide ghrelin. Ghrelin, a 28-amino-acid peptide produced in the X/A-like cells of the gastric oxyntic mucosa lining the stomach, is a key regulator of both short- and long-term energy homeostasis ([1]–[3]). Circulating ghrelin levels rise in anticipation of a meal and subside once the organism is satiated ([4]–[7]).

GOAT = conditions: microsomal assay; ref [56]; cited from earlier work
Description: An approach was undertaken to design a novel GOAT inhibitor, resulting in a compound we named CF801. The first five amino acids of CF801 derive from studies carried out in 2008 by Yang et al., who examined the inhibitory effect of certain pentapeptides (e.g., GSAFL-NH2) on GOAT using a microsomal assay ([56]). […] In synthesizing CF801, we extended and modified the original GSAFL-NH2 ...

[2] = effects appear similar to those of CF801; ref [74], [75]; cited from earlier work
Experimental: Given the high amino acid similarity between CF801 and desacyl ghrelin, it is possible that CF801 acts like an analog of desacyl ghrelin. […] Alternatively, CF801 may reduce acylated ghrelin simply by reducing GOAT mRNA, and thus acyl ghrelin levels, without altering GOAT activity at least in the way that this is tested in vitro. While the mechanisms underlying these ef ...

In the case of ghrelin, the feeding after injection ([1]; injections of ghrelin, ref [35]–[37]) is listed as “vigorous feeding bouts” and the “respiratory exchange ratio (RER)” value ([1]; mice receiving daily injections of ghrelin, ref [3]) is listed as “increases in RER”.
For GSAFL-NH2, the “inhibitory activity on GOAT” value (GOAT) is listed as “showed inhibitory activity on GOAT”.
For desacyl ghrelin, the “weight gain, ghrelin secretion and adipose tissue accumulation” value [2] is given as “decrease in weight gain, ghrelin secretion, and adipose tissue accumulation”.
